Results as given in publication PMC2211560 (PLoS Medicine, 2008).
“And” between values parts separate entries of the source, which are not always exact repeats. Equal entries are not always repeated.

Tests used:
mTOR = test: S6 ribosomal protein phosphorylation in tumor tissue by IHC (S2 versus S1); type: in vivo, human; settings: ratio of median IHC staining score S2 to S1, individual patients
Source text: (§1) To quantify mTOR activity in matched S1 and S2 samples, we measured phosphorylation of S6 ribosomal protein by immunohistochemistry using two distinct phosphosite antibodies directed against Ser235/236 or Ser240/244. […] Immunohistochemistry (IHC) scoring is described in detail in Text S1.
(§2) The following antibodies were used for IHC: anti-PTEN (6H2.1, #ABM-2052, Cascade BioScience; 1:400 dilution), anti-Ki-67 (MIB-1, M7240, DakoCytomation; 1:100 Dilution), anti-phospho Ser235/236 S6 (91B2, #4857, Cell Signaling; 1:50 dilution), anti phospho Ser240/244 S6 (#2215, Cell Signaling; 1:200 dilution), anti-phospho-PRAS 40 (#44–1100G, Biosource; 1:200 dilution), anti-phospho Ser473 Akt (736E11, #3787, Cell Signaling; 1:50 dilution), anti-phospho Thr389 p70 S6 Kinase (#9205, Cell Signaling; 1:100 Dilution), and anti phospho Ser1108 eIF4G at 1:400 (#2441, Cell Signaling; 1:400 dilution). Antigen retrieval was performed using 0.01 M citrate buffer, pH 6.0 for 30 min in an oven and peroxidase activity was quenched with 3% hydrogen peroxide in water. Primary antibodies were diluted in PBS /2% bovine serum albumin/2% normal horse serum (for anti-PTEN) or TBS/0.1% Tween/5% normal goat serum (for phosphosite-specific antibodies) and applied overnight at 4 °C. Biotinylated secondary antibodies (Vector) were applied at 1:200 dilution for 45 min, and the avidin-biotin complex (Elite ABC, Vector) for 30 min. Vector NovaRed was used as the enzyme substrate to visualize specific antibody localization. […] All slides were counterstained with Harris hematoxylin.
To quantify mTOR activity, we measured phosphorylation of S6 ribosomal protein by immunohistochemistry. S6 is a direct substrate of S6 kinase 1, a downstream effector of mTOR action, and has been widely used as a pharmacodynamic readout of mTOR inhibition in preclinical studies. To ensure specificity, we used two distinct phosphosite antibodies directed against Ser235/236 or Ser240/244 (Figure 2B). Both sites are directly phosphorylated by S6 kinase 1, but Ser235/236 can also be phosphorylated by p90 ribosomal S6 kinase (RSK) and other kinases. All measurements were quantified by digital readout of 2,500–5,000 tumor cells per slide cut from paraffin-embedded tissue (Figure S1).
Supplementary file pmed.0050008.sg001.pdf: Figure S1 Digital Scoring of Immunohistochemical Stains Adjacent tissue sections from each tumor were stained with antibodies against Ki-67, phospho S6 ribosomal protein (S6RP), phospho-PRAS40, and PTEN (unpublished data). Five areas per slide, each representing approximately 500–1,000 tumor cells, were selected for digital scoring. Image conversion and scoring was performed using Soft Imaging System Software. The distribution of immunoreactivity within these 2,500–5,000 cells was graphed for each sample as a box plot. The “fold change” (F.C.) in S6 immunoreactivity (Table 2 and Figure S2) was calculated for each tumor as the ratio between median staining score in the S2 and the median staining score in the S1 sample. (135 KB PDF) Click here for additional data file.
Scoring of immunohistochemical stains. Immunohistochemical screening of tumor samples for PTEN expression was based on a manual scoring method which compares PTEN staining of tumor cells to the PTEN staining of endothelial cells within the same viewfield and assigns scores of 0 (absent in tumor cells), 1 (reduced in tumor cells relative to endothelial cells), and 2 (tumor cells staining similar to endothelial cells). Digital scores for PTEN, phospho-S6, and phospho-PRAS40 are based on absolute staining intensity of tumor cells as quantified following false-color conversion.

Akt = test: PRAS40 (threonine 246) phosphorylation in tumor tissue by IHC; type: in vivo, human; settings: for pPRAS 40 Induction: statistically significant increase S2 vs S1 (p < 0.05, Wilcoxon), individual patients
Source text: as §2
We assessed Akt activity in S1 and S2 samples in the rapamycin-treated patients using phosphosite-specific antibodies against the serine/threonine kinase Akt (serine 473) and its downstream substrate PRAS 40 (threonine 246), which serves as a biomarker for Akt activity (Figure 4A). PRAS40 has also been recently shown to inhibit mTOR, and this inhibition is relieved by Akt phosphorylation.
(§3) Scoring of immunohistochemical stains. […] Digital scores for PTEN, phospho-S6, and phospho-PRAS40 are based on absolute staining intensity of tumor cells as quantified following false-color conversion. PTEN, phospho-S6, phospho-PRAS40, and Ki-67 were scored in representative and matching areas of consecutive tissue sections (Suppl. Fig. 1), excluding areas with large vessels and/or prominent reactive changes (e.g., reactive astrogliosis or lymphocytic infiltration). […] Quantitative analysis was done using HSI color algorithm based on hue, saturation and intensity. Saturations of the separated cell in the images were quantified in the red-brown hue range to exclude the negative staining area with hematoxylin nuclear staining. To compare the staining intensity of all slides, mean saturation of total cells on each image was quantified and calculated. For Ki-67 staining scoring, separated cells were quantified with red brown hue range (positive staining) and total hue range (all cells) after cell border separation and Ki-67 labeling index was calculated based on these numbers. […]

[1] = test system: PTEN-deficient glioblastoma; test: Ki-67 labeling index of tumor tissue (S2 versus S1); type: in vivo, human; settings: for Ki-67 Decrease: about 1 wk pre-operative, S2 vs S1, individual patients
Source text: as §1
The following antibodies were used for IHC: anti-PTEN (6H2.1, #ABM-2052, Cascade BioScience; 1:400 dilution), anti-Ki-67 (MIB-1, M7240, DakoCytomation; 1:100 Dilution), anti-phospho Ser235/236 S6 (91B2, #4857, Cell Signaling; 1:50 dilution), anti phospho Ser240/244 S6 (#2215, Cell Signaling; 1:200 dilution), anti-phospho-PRAS 40 (#44–1100G, Biosource; 1:200 dilution), anti-phospho Ser473 Akt (736E11, #3787, Cell Signaling; 1:50 dilution), anti-phospho Thr389 p70 S6 Kinase (#9205, Cell Signaling; 1:100 Dilution), and anti phospho Ser1108 eIF4G at 1:400 (#2441, Cell Signaling; 1:400 dilution). Antigen retrieval was performed using 0.01 M citrate buffer, pH 6.0 for 30 min in an oven and peroxidase activity was quenched with 3% hydrogen peroxide in water. Primary antibodies were diluted in PBS /2% bovine serum albumin/2% normal horse serum (for anti-PTEN) or TBS/0.1% Tween/5% normal goat serum (for phosphosite-specific antibodies) and applied overnight at 4 °C. […]
as §3, with “numbers. For p-PRAS40 scoring, mean saturation of the positive staining tumor cells was quantified in the red-brown hue range, followed by multiplying the positive cell ratio in the same image to evaluate both staining intensity and staining distribution. pS473 Akt was quantified on a scale of 0-2; 0^+ = no staining, 1^+ = mild intensity cytoplasmic staining, and 2^+ = strong cytoplasmic staining.” for “numbers.”

[2] = test system: short-term cultures derived from tumors; test: Ex vivo rapamycin response of short-term tumor cultures (S6 immunoblot); type: cell-based, human; settings: 0.3 and 3.0 nM, 8 h; rapamycin-sensitive (patients 1 and 3) and rapamycin-resistant (patients 2 and 12) samples
Source text: The lower and upper end of the box corresponds to the 25th and 75th percentile, respectively. The whiskers extend to the 95% range. The Wilcoxon nonparametric group comparison test was used to calculate p-values for the differences between different patient groups. […] The horizontal line inside the box indicates the median value. The lower and upper border of the box corresponds to the 25th and 75th percentile, respectively. The whiskers extend to the 95% range.

[3] = test system: cytochrome P450 isoenzyme 3A4; settings: cited from earlier work

## CO[C@H]1C[C@@H]2CC[C@@H](C)[C@@](O)(O2)C(=O)C(=O)N2CCCC[C@H]2C(=O)O[C@H]([C@H](C)C[C@@H]2CC[C@@H](O)[C@H](OC)C2)CC(=O)[C@H](C)/C=C(\C)[C@@H](O)[C@@H](OC)C(=O)[C@H](C)C[C@H](C)/C=C/C=C/C=C/1C [Rapamycin]
mTOR; 2 mg oral daily
  pS6 S2/S1 pSer235/236: 0.46 and 1.01
  pS6 S2/S1 pSer240/244: 0.61 and 0.82 and 0.85
mTOR; 5 mg oral daily
  pS6 S2/S1 pSer235/236: 0.91 and 0.48 and 0.22 and 0.77 and 1.16
  pS6 S2/S1 pSer240/244: 0.94 and 0.51 and 0.18 and 0.58 and 0.54
mTOR; 10 mg oral daily
  pS6 S2/S1 pSer235/236: 0.78 and 0.55 and 0.19 and 0.81 and 1.50 and 0.60
  pS6 S2/S1 pSer240/244: 0.27 and 0.58 and 0.44 and 0.60 and 0.56 and 0.91
Akt; 2 mg oral daily
  pPRAS 40 Induction: Yes
Akt; 5 mg oral daily
  pPRAS 40 Induction: No and Yes
Akt; 10 mg oral daily
  pPRAS 40 Induction: Yes and No
Akt; Seven of 14 patients, p < 0.05, Wilcoxon test
  patients with statistically significant increase in PRAS40 phosphorylation in S2 sample: 50%
[1]; 2 mg oral daily
  Ki-67 Decrease: Yes and No
[1]; 5 mg oral daily
  Ki-67 Decrease: No and Yes
[1]; 10 mg oral daily
  Ki-67 Decrease: Yes and No
[1]; Ki-67 staining after about 1 wk of rapamycin
  patients with nearly complete inhibition (dramatic reduction) of tumor cell proliferation: seven of 14 and 7/14
[2]
  S6 phosphorylation ex vivo: inhibited equally
[3]
  cytochrome P450 substrate: substrate for the cytochrome P450 isoenzyme 3A4
